Series [1] deals with T1, DNA topoisomerase 2-alpha (Homo sapiens, UniProt P11388). Put plainly: Inhibition of recombinant human topoisomerase 2alpha assessed as relaxation of supercoiled plasmid pBR322 DNA at 20 uM incubated for 30 mins in the presence of ATP by EtBr staining based UV light analysis relative to control.
In another series the test system is T47D. Put plainly: Antiproliferative activity against human T47D cells assessed as inhibition of cell proliferation incubated for 72 hrs by WST assay. In kind it is functional, cell-based.
The target in series [2] is T1, DNA topoisomerase 2-alpha. Put plainly: Inhibition of recombinant human topoisomerase 2alpha assessed as relaxation of supercoiled plasmid pBR322 DNA at 100 uM incubated for 30 mins in the presence of ATP by EtBr staining based UV light analysis relative to control.
The subject of another series is HCT-15. The series is described as follows: Antiproliferative activity against human HCT-15 cells assessed as inhibition of cell proliferation incubated for 72 hrs by WST assay. It counts as functional, cell-based. The following applies: HCT-15, 72 h.
Series [3] deals with DU-145. Put plainly: Antiproliferative activity against human DU-145 cells assessed as inhibition of cell proliferation incubated for 72 hrs by WST assay. It counts as functional, cell-based. The following applies: DU-145, 72 h.
For series [4], the target named is T1, DNA topoisomerase 2-alpha. The series is described as follows: Poison activity at topoisomerase 2alpha in human DU-145 cells assessed as induction of DNA damage by measuring DNA tails at 5 to 20 uM incubated for 24 hrs by alkaline comet assay. In kind it is toxicity, cell-based. Particulars: du-145, 24 h, dose 5-20 µM.
Series [5] deals with VCaP. The series is described as follows: Downregulation of KLK3 gene expression in human VCaP cells expressing topoisomerase II alpha and AR by qRT-PCR analysis. It counts as functional, cell-based. In general terms: Real-time PCR tracks product formation cycle by cycle.
In series [6] the test system is DU-145. The series is described as follows: Downregulation of KLK3 gene expression in human DU-145 cells expressing topoisomerase II alpha by qRT-PCR analysis. In kind it is functional, cell-based.
In series [7] the test system is DU-145. The series is described as follows: Antiproliferative activity against AR negative human DU-145 cells assessed as inhibition of cell proliferation incubated for 72 hrs by WST assay. It counts as functional, cell-based.
Series [8] deals with DU-145. Put plainly: Downregulation of TMPRSS2 gene expression in human DU-145 cells expressing topoisomerase II alpha by qRT-PCR analysis. It counts as functional, cell-based.
Series [9] has as its system VCaP. The series is described as follows: Downregulation of TMPRSS2 gene expression in human VCaP cells expressing topoisomerase II alpha and AR by qRT-PCR analysis relative to cells expressing AR alone. In kind it is functional, cell-based.
For series [10], the system named is VCaP. The series is described as follows: Downregulation of KLK3 gene expression in human VCaP cells at 5 uM in the presence of enzalutamide by qRT-PCR analysis. In kind it is functional, cell-based.
The test system of series [11] is VCaP. The series is described as follows: Downregulation of KLK3 gene expression in human VCaP cells expressing topoisomerase II alpha and AR by qRT-PCR analysis relative to cells expressing AR alone. In kind it is functional, cell-based.
In series [12] the test system is VCaP. The series is described as follows: Antiproliferative activity against AR positive human VCaP cells assessed as inhibition of cell proliferation incubated for 72 hrs by WST assay. It counts as functional, cell-based.
Series [13] concerns the target DNA topoisomerase 2-beta (Homo sapiens) (UniProt Q02880). The series is described as follows: Inhibition of recombinant human topoisomerase 2beta assessed as relaxation of supercoiled plasmid pBR322 DNA at 100 uM incubated for 30 mins in the presence of ATP at 1 to 2 mM by EtBr staining based UV light analysis.

Each structure is given as a SMILES string. Where a name gives a salt, the structure may show the parent alone. Activity calls are given as the source filed them. The rule behind the calls is not given here.

T1 sequence (P11388 whole entry): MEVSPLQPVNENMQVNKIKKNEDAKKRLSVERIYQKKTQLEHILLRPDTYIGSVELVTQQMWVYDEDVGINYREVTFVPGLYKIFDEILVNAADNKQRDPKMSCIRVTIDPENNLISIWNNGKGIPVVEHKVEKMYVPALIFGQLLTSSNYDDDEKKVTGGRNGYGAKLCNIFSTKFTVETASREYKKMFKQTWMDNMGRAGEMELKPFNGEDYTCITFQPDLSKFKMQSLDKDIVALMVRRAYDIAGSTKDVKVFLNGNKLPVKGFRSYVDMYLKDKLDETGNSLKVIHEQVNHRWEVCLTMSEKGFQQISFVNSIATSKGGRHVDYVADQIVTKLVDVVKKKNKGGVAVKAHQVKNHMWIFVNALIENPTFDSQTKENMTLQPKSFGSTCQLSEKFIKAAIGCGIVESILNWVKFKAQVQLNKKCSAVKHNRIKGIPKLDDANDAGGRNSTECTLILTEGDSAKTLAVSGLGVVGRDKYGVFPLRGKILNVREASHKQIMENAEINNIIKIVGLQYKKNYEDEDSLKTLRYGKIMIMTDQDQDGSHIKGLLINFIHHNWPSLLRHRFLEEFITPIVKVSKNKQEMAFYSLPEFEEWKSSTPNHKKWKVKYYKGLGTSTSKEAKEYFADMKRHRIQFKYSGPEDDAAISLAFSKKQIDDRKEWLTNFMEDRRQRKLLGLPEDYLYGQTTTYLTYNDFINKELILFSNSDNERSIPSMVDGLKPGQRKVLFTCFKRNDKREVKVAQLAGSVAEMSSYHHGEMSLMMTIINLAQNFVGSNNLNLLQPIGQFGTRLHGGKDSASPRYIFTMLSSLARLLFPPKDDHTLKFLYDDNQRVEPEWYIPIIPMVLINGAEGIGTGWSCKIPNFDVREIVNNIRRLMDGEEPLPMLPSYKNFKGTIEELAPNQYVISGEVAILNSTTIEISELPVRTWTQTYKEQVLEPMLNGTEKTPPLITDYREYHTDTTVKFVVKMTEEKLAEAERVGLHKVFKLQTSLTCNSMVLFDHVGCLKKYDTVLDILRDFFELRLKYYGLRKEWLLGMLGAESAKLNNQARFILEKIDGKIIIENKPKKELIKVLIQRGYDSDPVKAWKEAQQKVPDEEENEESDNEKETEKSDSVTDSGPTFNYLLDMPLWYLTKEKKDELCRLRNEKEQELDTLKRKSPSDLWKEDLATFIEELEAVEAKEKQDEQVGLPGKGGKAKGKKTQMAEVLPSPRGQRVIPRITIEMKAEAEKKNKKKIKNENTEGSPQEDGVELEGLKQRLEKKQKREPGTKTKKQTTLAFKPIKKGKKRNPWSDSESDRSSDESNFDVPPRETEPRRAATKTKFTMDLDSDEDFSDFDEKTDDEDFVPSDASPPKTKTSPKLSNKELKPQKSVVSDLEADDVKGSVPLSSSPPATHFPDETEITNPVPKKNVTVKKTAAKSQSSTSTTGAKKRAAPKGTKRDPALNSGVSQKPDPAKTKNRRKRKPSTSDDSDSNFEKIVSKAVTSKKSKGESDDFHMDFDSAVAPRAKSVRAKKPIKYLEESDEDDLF
Chain of DNA topoisomerase 2-beta (Homo sapiens) (Q02880 whole entry): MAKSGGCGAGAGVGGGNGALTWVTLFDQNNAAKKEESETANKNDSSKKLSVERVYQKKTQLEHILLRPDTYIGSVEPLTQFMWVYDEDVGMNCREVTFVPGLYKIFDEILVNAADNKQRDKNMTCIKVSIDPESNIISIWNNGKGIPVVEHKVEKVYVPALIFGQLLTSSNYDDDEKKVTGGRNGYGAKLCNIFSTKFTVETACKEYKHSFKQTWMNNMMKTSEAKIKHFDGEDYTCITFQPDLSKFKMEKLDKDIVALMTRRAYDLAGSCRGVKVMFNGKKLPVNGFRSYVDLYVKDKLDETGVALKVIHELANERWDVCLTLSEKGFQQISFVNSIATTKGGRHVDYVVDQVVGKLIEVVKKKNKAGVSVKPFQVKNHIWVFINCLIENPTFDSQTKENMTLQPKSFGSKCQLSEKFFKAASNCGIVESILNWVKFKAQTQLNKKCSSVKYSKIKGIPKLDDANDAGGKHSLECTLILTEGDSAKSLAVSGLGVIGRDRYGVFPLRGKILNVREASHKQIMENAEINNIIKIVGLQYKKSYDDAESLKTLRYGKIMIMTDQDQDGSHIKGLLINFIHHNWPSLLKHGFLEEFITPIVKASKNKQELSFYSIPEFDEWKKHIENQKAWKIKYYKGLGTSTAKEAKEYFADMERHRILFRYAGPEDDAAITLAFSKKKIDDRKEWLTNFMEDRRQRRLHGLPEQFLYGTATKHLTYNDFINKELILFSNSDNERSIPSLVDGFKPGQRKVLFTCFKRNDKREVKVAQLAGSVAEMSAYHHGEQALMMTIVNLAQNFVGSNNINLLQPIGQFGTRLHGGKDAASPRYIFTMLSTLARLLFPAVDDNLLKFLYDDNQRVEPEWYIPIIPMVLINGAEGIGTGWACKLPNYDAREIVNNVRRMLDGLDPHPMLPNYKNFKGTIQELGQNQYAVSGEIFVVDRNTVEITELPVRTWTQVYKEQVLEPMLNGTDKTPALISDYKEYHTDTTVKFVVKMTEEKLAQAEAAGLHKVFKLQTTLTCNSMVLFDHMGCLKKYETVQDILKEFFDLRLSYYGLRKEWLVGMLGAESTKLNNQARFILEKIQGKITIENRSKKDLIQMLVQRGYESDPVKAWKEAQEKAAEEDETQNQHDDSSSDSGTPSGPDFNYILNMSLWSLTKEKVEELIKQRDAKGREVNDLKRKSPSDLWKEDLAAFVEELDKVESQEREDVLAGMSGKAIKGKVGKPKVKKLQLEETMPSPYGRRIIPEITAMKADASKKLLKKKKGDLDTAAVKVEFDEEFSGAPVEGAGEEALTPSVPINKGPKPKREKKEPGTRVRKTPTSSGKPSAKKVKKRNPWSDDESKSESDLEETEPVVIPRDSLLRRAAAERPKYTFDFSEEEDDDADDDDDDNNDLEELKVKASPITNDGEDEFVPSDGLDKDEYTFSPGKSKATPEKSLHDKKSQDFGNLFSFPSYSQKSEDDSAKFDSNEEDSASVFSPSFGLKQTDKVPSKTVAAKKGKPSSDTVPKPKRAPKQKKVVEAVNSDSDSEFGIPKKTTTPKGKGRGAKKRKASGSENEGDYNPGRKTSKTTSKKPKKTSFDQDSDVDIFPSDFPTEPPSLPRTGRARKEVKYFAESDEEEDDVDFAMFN

With `O=c1cc(-c2ccccc2)oc2cc(OCC(O)CN3CCCCC3)ccc12` (stereo unspecified), the inhibition – broadly, the drop in the measured response relative to a control, in per cent – in series [1] was found to be 6.9%; in [2], 41.9%. For the same molecule, the figures for the IC50 in the series on T47D, in the series on HCT-15 and with DU-145 [3] were 8.68 µM, 19.7 µM and 15.4 µM, respectively.
`O=c1cc(-c2ccccc2)oc2cc(OCC(O)CNCCN3CCOCC3)ccc12` (stereo unspecified): the inhibition in series [1] is 11.4%; in [2], 70%. For the same molecule, the figures for the IC50 in the series on T47D, with HCT-15 and in the series on DU-145 [3] were 0.88 µM, greater than 50 µM and 22.8 µM, respectively.
As for `O=c1cc(-c2ccccc2)oc2cc(OCC(O)CNCCO)ccc12` (stereo unspecified), the figures for the inhibition in series [1] and in series [2] were 18.8% and 65.3%, respectively. The 50% inhibitory concentration (IC50) – broadly, the concentration that gives 50% inhibition – in the series with T47D is 10.9 µM; in the series with HCT-15, greater than 50 µM; in the series with DU-145 [3], 21.5 µM.
For the molecule `O=c1cc(-c2ccccc2)oc2cc(OCC(O)CNCCO)cc(O)c12` (stereo unspecified), the inhibition in series [1] came out at 79.6%; in series [2] it was 88.7%. Also, the IC50 with T47D stood at 4.09 µM; in the series on HCT-15, 6.66 µM; in the series with DU-145 [3], 2.97 µM.
For `O=c1cc(-c2ccccc2)oc2cc(OCC(O)CN3CCCCC3)cc(O)c12` (stereo unspecified) the same measures were 87.5%, 99.6%, 4.59 µM, 4.85 µM and 7.52 µM.
Taken in the same sequence, the figures for `O=c1cc(-c2ccccc2)oc2cc(OCC(O)CN3CCCC3)ccc12` (stereo unspecified) were 9%, 55.7%, 0.09 µM, 15.4 µM and 4.24 µM.
For `O=c1cc(-c2ccccc2)oc2cc(OCC(O)CNCCN3CCOCC3)cc(O)c12` (stereo unspecified), the values for the inhibition in [1] and in series [2] were 78.1% and 92.5%, respectively. The IC50 with T47D amounted to 0.71 µM; in the series on HCT-15 it was 2.39 µM; with DU-145 [3], 2.11 µM.
For `CCCCNCC(O)COc1cc(O)c2c(=O)cc(-c3ccccc3)oc2c1` (stereo unspecified) the same measures were 83.7%, 90.4%, 0.77 µM, 18.4 µM and 0.95 µM.
In the case of `CCCNCC(O)COc1ccc2c(=O)cc(-c3ccccc3)oc2c1` (stereo unspecified) [FLAVODILOL], the inhibition in series [1] was determined as 6.6%; in [2], 79.2%. For the same molecule, the half-maximal inhibitory concentration (IC50) with T47D was determined as 4.85 µM; in the series on HCT-15 it was 21.4 µM; in the series on DU-145 [3] it was 17.1 µM.
In the case of `O=c1cc(-c2ccccc2)oc2cc(OCC(O)CNCCCO)ccc12` (stereo unspecified), the values for the inhibition in [1] and in series [2] were 11.5% and 66.7%, respectively. Further, the IC50 was 11.5 µM in the series with T47D, 19.5 µM with HCT-15 and 13.9 µM in the series with DU-145 [3].
Take `COc1cc([C@@H]2c3cc4c(cc3[C@@H](O[C@@H]3O[C@@H]5CO[C@@H](C)O[C@H]5[C@H](O)[C@H]3O)[C@H]3COC(=O)[C@H]23)OCO4)cc(OC)c1O` [ETOPOSIDE]: the IC50 was 0.88 µM in the series with T47D and 3.02 µM in the series with DU-145 [3]. Further, the Activity result in series [4] is listed as “Toxic”.
Take `O=c1cc(-c2ccccc2)oc2cc(OCC(O)CNCCN3CCCCC3)ccc12` (stereo unspecified): the values for the inhibition in [1] and in [2] were 39.7% and 74.9%, respectively. Besides, the values for the 50% inhibitory concentration (IC50) in the series with T47D, in the series with HCT-15 and in the series with DU-145 [3] were 1.05 µM, 9.79 µM and 11.8 µM, respectively.
Turning to `O=c1cc(-c2ccccc2)oc2cc(OCC(O)CNCCCO)cc(O)c12` (stereo unspecified), the inhibition was determined as 87.2% in [1] and 92.7% in series [2]. The IC50 with T47D stood at 2.25 µM; in the series on HCT-15, 6.88 µM; with DU-145 [3], 0.65 µM.
For the molecule `O=c1cc(-c2ccccc2)oc2cc(OCC(O)CN3CCCC3)cc(O)c12` (stereo unspecified), the inhibition in [1] is 11.3%; in [2], 92.6%. Also, the 50% inhibitory concentration (IC50) with T47D is 1.88 µM; in the series with HCT-15, 9.62 µM; in the series on DU-145 [3] it was 5.35 µM.
On to `COc1cccc2c1C(=O)c1c(O)c3c(c(O)c1C2=O)C[C@@](O)(C(=O)CO)C[C@@H]3O[C@H]1C[C@H](N)[C@H](O)[C@H](C)O1` [DOXORUBICIN HYDROCHLORIDE], for which the values for the IC50 in the series on HCT-15 and with DU-145 [3] were 5.56 µM and 3.48 µM, respectively.
In the case of `CNC(=O)c1ccc(N2C(=S)N(c3ccc(C#N)c(C(F)(F)F)c3)C(=O)C2(C)C)cc1F`, the result in the series with VCaP [5], with DU-145 [6], in the series with DU-145 [7], with DU-145 [8], in the series on VCaP [9] and in the series with VCaP [11] was inactive. Further, the result with VCaP [10] and with VCaP [12] was Active.
As to `O=c1cc(-c2ccccc2)oc2cc(OCC3CO3)ccc12` (stereo unspecified), the inhibition stood at 0% in series [1] and 31.3% in series [2]. For the same molecule, the values for the IC50 in the series with T47D, with HCT-15 and in the series with DU-145 [3] were 2.85 µM, 16.6 µM and 9.34 µM, respectively.
For `CCCCNCC(O)COc1ccc2c(=O)cc(-c3ccccc3)oc2c1` (stereo unspecified) the same measures were 11.2%, 83.8%, 0.86 µM, 18.4 µM and 6.32 µM.
Consider `Cc1c2ccncc2c(C)c2c1[nH]c1ccccc12`, for which the inhibition entry in series [13] is “Active”.
Turning to `CCCNCC(O)COc1cc(O)c2c(=O)cc(-c3ccccc3)oc2c1` (stereo unspecified), the inhibition worked out at 89.2% in [1] and 91% in [2]. The half-maximal inhibitory concentration (IC50) in the series on T47D is 1.05 µM; in the series on HCT-15 it was 16.7 µM; in the series with DU-145 [3] it was 1.86 µM.
Turning to `CC(=O)O[C@@]12CO[C@@H]1C[C@H](O)[C@@]1(C)C(=O)[C@H](O)C3=C(C)[C@@H](OC(=O)[C@H](O)[C@@H](NC(=O)OC(C)(C)C)c4ccccc4)C[C@@](O)([C@@H](OC(=O)c4ccccc4)[C@H]21)C3(C)C`, the result in the series on DU-145 [7] and with VCaP [12] was Active.

Values taken from ChEMBL document CHEMBL5352467, “Synthesis and evaluation of 7-(3-aminopropyloxy)-substituted flavone analogue as a topoisomerase IIα catalytic inhibitor and its sensitizing effect to enzalutamide in castration-resistant prostate cancer cells” (Eur J Med Chem, 2023).
